SMILES strings stand for the structures.

One experiment deals with Recombinant Human Poly(ADP-Ribose) Polymerase (PARP), PARP-1 (Homo sapiens (Human), UniProt P09874). The settings on record: read-out: PARP-1 (Ki).
Chain of Recombinant Human Poly(ADP-Ribose) Polymerase (PARP), PARP-1 (P09874 whole entry): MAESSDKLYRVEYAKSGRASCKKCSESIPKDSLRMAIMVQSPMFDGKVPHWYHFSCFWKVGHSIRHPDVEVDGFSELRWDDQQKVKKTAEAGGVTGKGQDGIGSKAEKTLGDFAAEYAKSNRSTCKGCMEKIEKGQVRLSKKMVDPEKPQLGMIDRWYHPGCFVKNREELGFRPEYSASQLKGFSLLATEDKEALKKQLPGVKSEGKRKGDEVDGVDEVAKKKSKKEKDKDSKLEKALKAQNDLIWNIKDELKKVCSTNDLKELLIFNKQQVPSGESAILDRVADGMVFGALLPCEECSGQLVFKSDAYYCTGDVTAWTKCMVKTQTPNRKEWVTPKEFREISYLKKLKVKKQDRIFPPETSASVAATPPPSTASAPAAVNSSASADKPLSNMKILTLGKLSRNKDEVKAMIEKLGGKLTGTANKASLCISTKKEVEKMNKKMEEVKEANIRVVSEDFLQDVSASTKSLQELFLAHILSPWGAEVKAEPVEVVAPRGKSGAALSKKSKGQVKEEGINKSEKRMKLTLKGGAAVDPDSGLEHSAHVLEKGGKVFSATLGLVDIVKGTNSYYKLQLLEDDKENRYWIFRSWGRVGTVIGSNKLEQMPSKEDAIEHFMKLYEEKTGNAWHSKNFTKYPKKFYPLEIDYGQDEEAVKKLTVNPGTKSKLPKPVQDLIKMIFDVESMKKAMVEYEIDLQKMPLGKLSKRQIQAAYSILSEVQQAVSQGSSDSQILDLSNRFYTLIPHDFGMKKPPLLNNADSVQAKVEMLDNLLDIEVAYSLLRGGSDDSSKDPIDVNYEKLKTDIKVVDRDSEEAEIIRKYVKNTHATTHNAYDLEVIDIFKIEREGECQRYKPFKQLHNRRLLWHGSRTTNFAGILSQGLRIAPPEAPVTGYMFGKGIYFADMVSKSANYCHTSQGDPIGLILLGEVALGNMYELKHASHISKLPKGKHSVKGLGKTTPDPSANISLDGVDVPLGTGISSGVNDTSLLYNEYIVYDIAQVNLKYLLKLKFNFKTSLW
On to `O=C(OCc1ccccc1)N1CCN(C(=O)c2cc(Cc3n[nH]c(=O)c4c3CCCC4)ccc2F)CC1` [Example 543, benzyl 4-{2-fluoro-5-[(4-oxo-3,4,5,6,7,8-hexahydrophthalazin-1-yl)methyl]benzoyl}piperazine-1-carboxylate], for which the Ki came out at 5 nM.

The experiment is the same for the next values; noted with them: read-out: PARP-1 (Ki); Table 1; text calls the values EC50s.
Take `CN(C)CCN(C)C(=O)c1cc(Cc2n[nH]c(=O)c3c2CCCC3)ccc1F` [Example 504, N-[2-(dimethylamino)ethyl]-2-fluoro-N-methyl-5-[(4-oxo-3,4,5,6,7,8-hexahydrophthalazin-1-yl)methyl]benzamide]: the Ki amounted to 3.6 nM.

Regarding `CCN(CC)C(=O)C1CCCN(C(=O)c2cc(Cc3n[nH]c(=O)c4c3CCCC4)ccc2F)C1` (stereo not drawn) [Example 505, N,N-diethyl-1-{2-fluoro-5-[(4-oxo-3,4,5,6,7,8-hexahydrophthalazin-1-yl)methyl]benzoyl}piperidine-3-carboxamide], the inhibition constant Ki was determined as 6 nM.

As for `CN1CCCN(C(=O)c2cc(Cc3n[nH]c(=O)c4c3NCCC4)ccc2F)CC1` [Example 509, 8-{4-fluoro-3-[(4-methyl-1,4-diazepan-1-yl)carbonyl]benzyl}-2,3,4,6-tetrahydropyrido[2,3-d]pyridazin-5(1H)-one], the Ki turned out to be 3 nM.

Consider `CN(C)CCN(C)C(=O)c1cc(Cc2n[nH]c(=O)c3c2NCCC3)ccc1F` [Example 513, N-[2-(dimethylamino)ethyl]-2-fluoro-N-methyl-5-[(5-oxo-1,2,3,4,5,6-hexahydropyrido[2,3-d]pyridazin-8-yl)methyl]benzamide], for which the Ki came out at 6 nM.

Regarding `O=C(c1cc(Cc2n[nH]c(=O)c3c2CCCC3)ccc1F)N1CCN(Cc2cccc(Cl)c2)CC1` [Example 514, 4-(3-{[4-(3-chlorobenzyl)piperazin-1-yl]carbonyl}-4-fluorobenzyl)-5,6,7,8-tetrahydrophthalazin-1(2H)-one], the Ki worked out at 9 nM.

Take `O=C(c1cc(Cc2n[nH]c(=O)c3c2CCCC3)ccc1F)N1CCN(c2ccccc2)CC1` [Example 515, 4-{4-fluoro-3-[(4-phenylpiperazin-1-yl)carbonyl]benzyl}-5,6,7,8-tetrahydrophthalazin-1(2H)-one]: the inhibition constant Ki was determined as 3 nM.

`O=C(c1cc(Cc2n[nH]c(=O)c3c2CCCC3)ccc1F)N1CCN(c2ccccc2Cl)CC1` [Example 517, 4-(3-{[4-(2-chlorophenyl)piperazin-1-yl]carbonyl}-4-fluorobenzyl)-5,6,7,8-tetrahydrophthalazin-1(2H)-one]: the inhibition constant (Ki) amounted to 5 nM.

Consider `O=C(c1cc(Cc2n[nH]c(=O)c3c2CCCC3)ccc1F)N1CCN(Cc2ccccc2Cl)CC1` [Example 518, 4-(3-{[4-(2-chlorobenzyl)piperazin-1-yl]carbonyl}-4-fluorobenzyl)-5,6,7,8-tetrahydrophthalazin-1(2H)-one], for which the Ki is 10 nM.

On to `NC(=O)C1CCCN(C(=O)c2cc(Cc3n[nH]c(=O)c4c3NCCC4)ccc2F)C1` (stereo not drawn) [Example 519, 1-{2-fluoro-5-[(5-oxo-1,2,3,4,5,6-hexahydropyrido[2,3-d]pyridazin-8-yl)methyl]benzoyl}piperidine-3-carboxamide], for which the inhibition constant Ki is 5 nM.

Regarding `CC(=O)N1CCN(C(=O)c2cc(Cc3n[nH]c(=O)c4c3CCCC4)ccc2F)CC1` [Example 520, 4-{3-[(4-acetylpiperazin-1-yl)carbonyl]-4-fluorobenzyl}-5,6,7,8-tetrahydrophthalazin-1(2H)-one], the Ki was determined as 0.1 nM.

As for `O=C(c1cc(Cc2n[nH]c(=O)c3c2CCCC3)ccc1F)N1CCN(c2ccccc2F)CC1` [Example 523, 4-(4-fluoro-3-{[4-(2-fluorophenyl)piperazin-1-yl]carbonyl}benzyl)-5,6,7,8-tetrahydrophthalazin-1(2H)-one], the Ki is 13 nM.

Consider `O=C(c1cc(Cc2n[nH]c(=O)c3c2CCCC3)ccc1F)N1CCN(c2ccc(F)cc2F)CC1` [Example 524, 4-(3-{[4-(2,4-difluorophenyl)piperazin-1-yl]carbonyl}-4-fluorobenzyl)-5,6,7,8-tetrahydrophthalazin-1(2H)-one], for which the inhibition constant Ki was 5 nM.

For `O=C(c1ccccc1)N1CCN(C(=O)c2cc(Cc3n[nH]c(=O)c4c3CCCC4)ccc2F)CC1` [Example 525, 4-{3-[(4-benzoylpiperazin-1-yl)carbonyl]-4-fluorobenzyl}-5,6,7,8-tetrahydrophthalazin-1(2H)-one], the Ki was determined as 1.6 nM.

Turning to `O=C(c1cc(Cc2n[nH]c(=O)c3c2NCCC3)ccc1F)N1CCN(C(=O)N2CCCCC2)CC1` [Example 526, 8-(4-fluoro-3-{[4-(piperidin-1-ylcarbonyl)piperazin-1-yl]carbonyl}benzyl)-2,3,4,6-tetrahydropyrido[2,3-d]pyridazin-5(1H)-one], the Ki was determined as 4 nM.

Regarding `O=C(c1cc(Cc2n[nH]c(=O)c3c2CCCC3)ccc1F)N1CCN(c2cccc(F)c2)CC1` [Example 527, 4-(4-fluoro-3-{[4-(3-fluorophenyl)piperazin-1-yl]carbonyl}benzyl)-5,6,7,8-tetrahydrophthalazin-1(2H)-one], the Ki was found to be 3 nM.

For `O=C(c1cc(Cc2n[nH]c(=O)c3c2CCCC3)ccc1F)N1CCN(c2ccc(F)cc2)CC1` [Example 528, 4-(4-fluoro-3-{[4-(4-fluorophenyl)piperazin-1-yl]carbonyl}benzyl)-5,6,7,8-tetrahydrophthalazin-1(2H)-one], the Ki turned out to be 4 nM.

With `O=C(c1cc(Cc2n[nH]c(=O)c3c2CCCC3)ccc1F)N1CCN(c2ccccn2)CC1` [Example 529, 4-{4-fluoro-3-[(4-pyridin-2-ylpiperazin-1-yl)carbonyl]benzyl}-5,6,7,8-tetrahydrophthalazin-1(2H)-one], the Ki was found to be 2 nM.

For `CCN(CC)C(=O)N1CCN(C(=O)c2cc(Cc3n[nH]c(=O)c4c3CCCC4)ccc2F)CC1` [Example 530, N,N-diethyl-4-{2-fluoro-5-[(4-oxo-3,4,5,6,7,8-hexahydrophthalazin-1-yl)methyl]benzoyl}piperazine-1-carboxamide], the Ki was determined as 2 nM.

For `CC(C)N1CCN(C(=O)c2cc(Cc3n[nH]c(=O)c4c3CCCC4)ccc2F)CC1` [Example 531, 4-{4-fluoro-3-[(4-isopropylpiperazin-1-yl)carbonyl]benzyl}-5,6,7,8-tetrahydrophthalazin-1(2H)-one], the Ki was determined as 2 nM.

For the compound `O=C(CN1CCN(C(=O)c2cc(Cc3n[nH]c(=O)c4c3NCCC4)ccc2F)CC1)N1CCCC1` [Example 532, 8-(4-fluoro-3-{[4-(2-oxo-2-pyrrolidin-1-ylethyl)piperazin-1-yl]carbonyl}benzyl)-2,3,4,6-tetrahydropyrido[2,3-d]pyridazin-5(1H)-one], the Ki was found to be 4 nM.

On to `O=C(c1cc(Cc2n[nH]c(=O)c3c2CCCC3)ccc1F)N1CCN(C(=O)N2CCOCC2)CC1` [Example 533, 4-(4-fluoro-3-{[4-(morpholin-4-ylcarbonyl)piperazin-1-yl]carbonyl}benzyl)-5,6,7,8-tetrahydrophthalazin-1(2H)-one], for which the Ki stood at 2 nM.

As to `NC(=O)C1CCN(C(=O)c2cc(Cc3n[nH]c(=O)c4c3NCCC4)ccc2F)CC1` [Example 534, 1-{2-fluoro-5-[(5-oxo-1,2,3,4,5,6-hexahydropyrido[2,3-d]pyridazin-8-yl)methyl]benzoyl}piperidine-4-carboxamide], the Ki is 2 nM.

Take `O=C(c1cc(Cc2n[nH]c(=O)c3c2NCCC3)ccc1F)N1CCN(CCO)CC1` [Example 535, 8-(4-fluoro-3-{[4-(2-hydroxyethyl)piperazin-1-yl]carbonyl}benzyl)-2,3,4,6-tetrahydropyrido[2,3-d]pyridazin-5(1H)-one]: the Ki stood at 4 nM.

With `O=C(CN1CCN(C(=O)c2cc(Cc3n[nH]c(=O)c4c3CCCC4)ccc2F)CC1)N1CCCC1` [Example 537, 4-(4-fluoro-3-{[4-(2-oxo-2-pyrrolidin-1-ylethyl)piperazin-1-yl]carbonyl}benzyl)-5,6,7,8-tetrahydrophthalazin-1(2H)-one], the Ki came to 2.5 nM.

Take `CC(C)NC(=O)Nc1cc(Cc2n[nH]c(=O)c3c2CCCC3)ccc1F` [Example 538, N-{2-fluoro-5-[(4-oxo-3,4,5,6,7,8-hexahydrophthalazin-1-yl)methyl]phenyl}-N′-isopropylurea]: the Ki amounted to 374 nM.

Consider `CCCNC(=O)Nc1cc(Cc2n[nH]c(=O)c3c2CCCC3)ccc1F` [Example 539, N-{2-fluoro-5-[(4-oxo-3,4,5,6,7,8-hexahydrophthalazin-1-yl)methyl]phenyl}-N′-propylurea], for which the Ki was found to be 191 nM.

As for `O=C(Nc1cc(Cc2n[nH]c(=O)c3c2CCCC3)ccc1F)NC1CCCC1` [Example 540, N-cyclopentyl-N′-{2-fluoro-5-[(4-oxo-3,4,5,6,7,8-hexahydrophthalazin-1-yl)methyl]phenyl}urea], the Ki was 204 nM.

On to `O=C(Nc1ccc(F)cc1F)Nc1cc(Cc2n[nH]c(=O)c3c2CCCC3)ccc1F` [Example 541, N-(2,4-difluorophenyl)-N′-{2-fluoro-5-[(4-oxo-3,4,5,6,7,8-hexahydrophthalazin-1-yl)methyl]phenyl}urea], for which the Ki stood at 71 nM.

For `CC(C)(C)NC(=O)Nc1cc(Cc2n[nH]c(=O)c3c2CCCC3)ccc1F` [Example 542, N-(tert-butyl)-N′-{2-fluoro-5-[(4-oxo-3,4,5,6,7,8-hexahydrophthalazin-1-yl)methyl]phenyl}urea], the Ki amounted to 548 nM.

For the compound `O=C(OCc1ccccc1)N1CCCN(C(=O)c2cc(Cc3n[nH]c(=O)c4c3CCCC4)ccc2F)CC1` [Example 544, benzyl 4-{2-fluoro-5-[(4-oxo-3,4,5,6,7,8-hexahydrophthalazin-1-yl)methyl]benzoyl}-1,4-diazepane-1-carboxylate], the inhibition constant (Ki) was determined as 4 nM.

With `O=C(c1cc(Cc2n[nH]c(=O)c3c2NCCC3)ccc1F)N1CCN(c2cccc(F)c2)CC1` [Example 547, 8-(4-fluoro-3-{[4-(3-fluorophenyl)piperazin-1-yl]carbonyl}benzyl)-2,3,4,6-tetrahydropyrido[2,3-d]pyridazin-5(1H)-one], the inhibitory constant (Ki) is 2.3 nM.

Turning to `O=C(c1cc(Cc2n[nH]c(=O)c3c2NCCC3)ccc1F)N1CCN(c2ccc(F)cc2)CC1` [Example 548, 8-(4-fluoro-3-{[4-(4-fluorophenyl)piperazin-1-yl]carbonyl}benzyl)-2,3,4,6-tetrahydropyrido[2,3-d]pyridazin-5(1H)-one], the Ki stood at 2 nM.

As usually defined, the Ki is the equilibrium dissociation constant of an inhibitor or competing ligand from its target.

The values are drawn from patent US9283222B2 (priority 2006, dated 2016).
